In patent publication US12247045B2, “MAP4K4 inhibitors” (Imperial College Innovations Limited, priority 2018, dated 2025):

Molecular target: T1, human MAP4K4 kinase domain (Homo sapiens, UniProt O95819)
T1 construct: 0.5 nM human MAP4K4 kinase domain (Invitrogen); purchased Invitrogen
Assay: MAP4K4 kinase activity, CisBio HTRF Transcreener ADP assay
Type: biochemical
Conditions: IC50 category; ATP at Km (10 μM), 0.5 nM kinase domain, 2 h; read-out: MAP4K4
Text: Compounds of the present invention were screened for their inhibitory activity against MAP4K4, versus selected off-target hits found with early members of this chemical series. MAP4K4 kinase activity was monitored using the CisBio HTRF Transcreener ADP assay, a competitive immunoassay with a reproducible Z′>0.6. In the detection step, endogenous ADP and d2-labeled ADP compete for binding an anti-ADP monoclonal antibody labelled with Eu^3+ cryptate. A ratiometric fluorescent read-out is used at 665 and 620 nm. Reactions were performed in the presence of 1% DMSO with ATP added at Km (10 μM), 0.5 nM human MAP4K4 kinase domain (Invitrogen), 1 μM biotin-myelin basic protein as substrate (Invitrogen), and extension of reaction time to 2 h. Assays were run in Greiner low volume plates with a final reaction volume of 10 μl. The MAP4K4 inhibition data are provided in Table 41 below for selected compounds of the present invention. The data has been categorised based on the IC50 value of the compound as “A”, “B” or “C”. IC50: A≤100 nM; 100 nM<B≤1 μM; 1 μM<C; nd=not determined.

T1 sequence (O95819 25-289 limits assumed): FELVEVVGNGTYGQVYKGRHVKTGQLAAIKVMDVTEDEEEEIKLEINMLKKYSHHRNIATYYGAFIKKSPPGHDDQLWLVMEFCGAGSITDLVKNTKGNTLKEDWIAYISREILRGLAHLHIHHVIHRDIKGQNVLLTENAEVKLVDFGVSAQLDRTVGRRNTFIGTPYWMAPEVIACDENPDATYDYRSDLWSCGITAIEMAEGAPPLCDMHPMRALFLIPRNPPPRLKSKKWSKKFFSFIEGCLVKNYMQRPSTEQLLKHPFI

IC50 [nM]	SMILES
> 1000	O=c1[nH]cnc2c(-c3ccncc3F)cn(-c3ccccc3)c12 [Ex-121]
100 to 1000	CNCCn1cc(-c2cn(-c3ccccc3)c3nc[nH]c(=O)c23)cn1 [Ex-109]
≤ 100	CN1CCN(CCCOc2ccc(-c3cn(-c4cccnc4)c4nc[nH]c(=O)c34)cc2)CC1 [Ex-43]
100 to 1000	COc1cc(-n2cc(-c3ccc(OCCC(C)(C)O)cc3)c3c(=O)[nH]cnc32)ccn1 [Ex-83]
≤ 100	Cn1cc(-c2cn(-c3ccccc3)c3nc[nH]c(=O)c23)cn1 [Ex-24]
100 to 1000	CNCCC(=O)Nc1ccc(-c2cn(-c3ccncc3)c3nc[nH]c(=O)c23)cc1 [Ex-10]
≤ 100	COCCCOc1ccc(-c2cn(-c3cccnc3)c3nc[nH]c(=O)c23)cc1 [Ex-71]
≤ 100	CN(CCO)c1ncc(-c2cn(-c3ccccc3)c3nc[nH]c(=O)c23)cc1C#N [Ex-53]
> 1000	CNc1ccc(-c2cn(-c3ccccc3)c3c(=O)[nH]cnc23)cn1 [Ex-134]
100 to 1000	Cn1cc(-c2cn(-c3ccccc3)c3c(=O)[nH]cnc23)cn1 [Ex-120]
> 1000	O=c1[nH]cnc2c1c(-c1ccccn1)cn2-c1ccccc1 [Ex-106]
≤ 100	O=c1[nH]cnc2c1c(-c1ccc(OCCC3(O)CC3)cc1)cn2-c1cccnc1 [Ex-70]
100 to 1000	COCCNc1ncc(-c2cn(-c3ccncc3)c3nc[nH]c(=O)c23)cn1 [Ex-32]
100 to 1000	O=c1[nH]cnc2c1c(-c1cnc(N3CC(CO)C3)nc1)cn2-c1ccccc1 [Ex-51]
100 to 1000	COCCn1cc(-c2cn(-c3ccncc3)c3nc[nH]c(=O)c23)cn1 [Ex-63]
≤ 100	O=c1[nH]cnc2c1c(-c1ccc[nH]1)cn2-c1ccccc1 [Ex-56, 7-Phenyl-5-(1H-pyrrol-2-yl)-3,7-dihydro-pyrrolo[2,3-d]pyrimidin-4-one]
100 to 1000	COc1ccc(-c2cn(-c3ccccc3)c3c(=O)[nH]cnc23)cn1 [Ex-132]
100 to 1000	O=c1[nH]cnc2c(-c3ccc4[nH]cnc4c3)cn(-c3ccccc3)c12 [Ex-118]
≤ 100	O=c1[nH]cnc2c1c(-c1cnn(CCCO)c1)cn2-c1ccccc1 [Ex-113, 5-[1-(3-Hydroxy-propyl)-1H-pyrazol-4-yl]-7-phenyl-3,7-dihydro-pyrrolo[2,3-d]pyrimidin-4-one]
≤ 100	CC(C)(O)COc1ccc(-c2cn(-c3ccccc3)c3nc[nH]c(=O)c23)cn1 [Ex-46]
100 to 1000	O=c1[nH]cnc2c1c(-c1ccn[nH]1)cn2-c1ccccc1 [Ex-57]
100 to 1000	COc1ccc(-c2cn(-c3ccccc3)c3nc[nH]c(=O)c23)nc1 [Ex-105]
≤ 100	O=c1[nH]cnc2c1c(-c1ccncc1)cn2-c1ccccc1 [Ex-4]
100 to 1000	CC(C)(O)COc1ccc(-c2cn(-c3cc[n+]([O-])cc3)c3nc[nH]c(=O)c23)cc1 [Ex-98]
≤ 100	COc1ccc(-n2cc(-c3ccc(OCCC(C)(C)O)cc3)c3c(=O)[nH]cnc32)cn1 [Ex-86]
≤ 100	Nc1ccc(-c2cn(-c3ccccc3)c3c(=O)[nH]cnc23)cn1 [Ex-138, 7-(6-aminopyridin-3-yl)-5-phenyl-3,5-dihydro-4H-pyrrolo[3,2-d]pyrimidin-4-one]
≤ 100	CC(C)(O)CCOc1ccc(-c2cn(-c3cccnc3)c3nc[nH]c(=O)c23)cc1C#N [Ex-87]

IC50 [nM]	SMILES
> 1000	COCCOc1ccc(-c2cn(-c3cccnc3)c3ncn(COP(=O)(O)O)c(=O)c23)cc1 [Ex-103]
≤ 100	O=c1[nH]cnc2c1c(-c1ccc(OC(F)(F)CO)cc1)cn2-c1cccnc1 [Ex-77]
≤ 100	O=c1[nH]cnc2c1c(-c1ccc(OCC3(CO)COC3)cc1)cn2-c1cccnc1 [Ex-79]
≤ 100	CC(=O)Nc1ccc(-c2cn(-c3ccccc3)c3nc[nH]c(=O)c23)cn1 [Ex-6]
≤ 100	CN(CCC(C)(C)O)c1ccc(-c2cn(-c3ccccc3)c3nc[nH]c(=O)c23)cn1 [Ex-95]
≤ 100	CN(CCO)c1ccc(-c2cn(-c3ccccc3)c3nc[nH]c(=O)c23)cn1 [Ex-52]
100 to 1000	O=c1[nH]cnc2c(-c3ccc(OC4CC4)nc3)cn(-c3ccccc3)c12 [Ex-137, 7-(6-cyclopropoxypyridin-3-yl)-5-phenyl-3,5-dihydro-4H-pyrrolo[3,2-d]pyrimidin-4-one]
≤ 100	CC(C)(O)CCOc1ccc(-c2cn(-c3ccncc3)c3nc[nH]c(=O)c23)cc1 [Ex-69]
≤ 100	CC(C)(CO)COc1ccc(-c2cn(-c3cccnc3)c3nc[nH]c(=O)c23)cc1 [Ex-92]
100 to 1000	CC(=O)N1CC(n2cc(-c3cn(-c4ccncc4)c4nc[nH]c(=O)c34)cn2)C1 [Ex-12]
≤ 100	O=c1[nH]cnc2c1c(-c1ccc(OCCC3(O)COC3)cc1)cn2-c1cccnc1 [Ex-91]
≤ 100	COCCOc1ccc(-c2cn(-c3ccncc3)c3nc[nH]c(=O)c23)cn1 [Ex-13]
100 to 1000	O=c1[nH]cnc2c(-c3cnn(CCO)c3)cn(-c3ccccc3)c12 [Ex-123]
≤ 100	COCCOc1ccc(-c2cn(-c3cccnc3)c3cc[nH]c(=O)c23)cc1 [Ex-140, 3-[4-(2-Methoxy-ethoxy)-phenyl]-1-pyridin-3-yl-1,5-dihydro-pyrrolo[3,2-c]pyridin-4-one]
≤ 100	Nc1cc(-c2cn(-c3ccccc3)c3nc[nH]c(=O)c23)ccn1 [Ex-8]
100 to 1000	O=c1[nH]cnc2c1c(-c1cnc(NCCO)nc1)cn2-c1cccnc1 [Ex-45]
100 to 1000	O=c1[nH]cnc2c(-c3ccncc3)cn(-c3ccccc3)c12 [Ex-119, 5-Phenyl-7-pyridin-4-yl-3,5-dihydro-pyrrolo[3,2-d]pyrimidin-4-one]
≤ 100	O=c1[nH]cnc2c1c(-c1cnc(NCCO)nc1)cn2-c1ccccc1 [Ex-49]
≤ 100	CC(C)(C)OC(=O)N1CC(n2cc(-c3cn(-c4ccccc4)c4nc[nH]c(=O)c34)cn2)C1 [Ex-65, 3-[4-(4-oxo-7-phenyl-4,7-dihydro-3H-pyrrolo[2,3-d]pyrimidin-5-yl)-pyrazol-1-yl]-azetidine-1-carboxylic acid tert-butyl ester]
≤ 100	O=c1[nH]cnc2c1c(-c1cn[nH]c1)cn2-c1ccccc1 [Ex-112, 7-Phenyl-5-(1H-pyrazol-4-yl)-3,7-dihydro-pyrrolo[2,3-d]pyrimidin-4-one]
≤ 100	COCCNc1ccc(-c2cn(-c3cccc(F)c3)c3nc[nH]c(=O)c23)cn1 [Ex-30]
≤ 100	COCCNc1ccc(-c2cn(-c3ccncc3)c3nc[nH]c(=O)c23)cn1 [Ex-14]
≤ 100	CC(C)(O)COc1ccc(-c2cn(-c3ccncc3)c3nc[nH]c(=O)c23)cc1 [Ex-68, 5-(4-(2-hydroxy-2methylpropoxy)phenyl)-7-(pyridine-4-yl)-3,7-dihydro-4H-pyrrolo[2,3-d]pyrimidin-4-one]
100 to 1000	CC(C)(N)CCOc1ccc(-c2cn(-c3cccnc3)c3nc[nH]c(=O)c23)cc1 [Ex-111]
100 to 1000	COc1cc(-c2cn(-c3ccccc3)c3c(=O)[nH]cnc23)ccn1 [Ex-127]
≤ 100	CC(C)(O)COc1ccc(-c2cn(-c3cccnc3)c3nc[nH]c(=O)c23)cc1 [Ex-66, 5-(4-(2-hydroxy-2-methylpropoxy)phenyl)-7-(pyridin-3-yl)-3,7-dihydro-4H-pyrrolo[2,3-d]pyrimidin-4-one]

SMILES	IC50 [nM]
CC(C)(O)CCOc1ccc(-n2cc(-c3cccnc3)c3nc[nH]c(=O)c32)cc1 [Ex-125, 5-(4-(3-hydroxy-3-methylbutoxy)phenyl)-7-(pyridin-3-yl)-3,5-dihydro-4H-pyrrolo[3,2-d]pyrimidin-4-one]	≤ 100
